Assay results from patent publication US7759345B2, “Antitumoral derivatives of ET-743” (priority 2001, dated 2010).
Like-named read-outs stand apart in the source and are kept apart here.

Columns and labels:
P-388 = test: Inhibition of cell growth by counting cells, P-388; type: cell-based, mouse; details: Mus musculus, P388, 72 h; three days of incubation; read-out: IC50 (molar) P-388
Method in brief: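 IC50 is the sample concentration halving growth, taken from dose-response curves of cell counts (Coulter counter, duplicate wells) relative to drug-free cultures. P-388 (DBA/2 mouse lymphoid neoplasm) cells plated at 1×10^4 per well in EMEM with 5% FCS plus test sample.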

A-549 = test: Inhibition of cell growth by counting cells, A-549; type: cell-based, human; details: Homo sapiens, A549, 72 h; three days of incubation; read-out: IC50 (molar) A-549
Method in brief: (§1)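 Growth inhibition by direct cell counting: exponentially growing cells treated 3 days with compound at 37° C; IC50 derived from dose-response of net cells per well.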

HT-29 = test: Inhibition of cell growth by counting cells, HT-29; type: cell-based, human; details: Homo sapiens, HT-29, 72 h; three days of incubation; read-out: IC50 (molar) HT-29
Method in brief: as §1

MEL-28 = test: Inhibition of cell growth by counting cells, MEL-28; type: cell-based, human; details: Homo sapiens, SK-MEL-28, 72 h; three days of incubation; read-out: IC50 (molar) MEL-28
Method in brief: as §1

DU-145 = test: Inhibition of cell growth by counting cells, DU-145; type: cell-based, human; details: Homo sapiens, DU-145, 72 h, read-out: IC50 (molar) DU-145
Experimental: 1°.—Inhibition of Cell Growth by Counting Cells.
This form of the assay employs 24 well multidishes of 16 mm diameter (Bergeron, 1984; Schroeder, 1981). The tumor cell lines employed are: P-388 (ATCC CCL 46), suspension culture of a lymphoid neoplasm from a DBA/2 mouse; A-549 (ATCC CCL 185), monolayer culture of a human lung carcinoma; HT-29 (ATCC HTB-38), monolayer culture of a human colon carcinoma; MEL-28 (ATCC HTB-72), monolayer culture of a human melanoma and DU-145 (ATCC HTB-81), monolayer culture of a human prostate carcinoma.
Cells were maintained, in logarithmic phase of growth in Eagle's Minimum Essential Medium, with Earle's Balanced Salts, with non-essential amino acids, with 2.0 mM L-Glutamine, without sodium bicarbonate (EMEM/neaa), supplemented with 10% Fetal Calf Serum (FCS), 10^−2 M. sodium bicarbonate and 0.1 U/l penicillin G+0.1 g/l streptomycin sulfate. For the experiments, cells are harvested from subconfluent cultures using trypsin and resuspended in fresh medium before plating.
A-549, HT-29, MEL-28 and DU-145 cells were seeded into 16 mm diameter wells at 1×10^4 cells per well in 1 ml aliquots of EMEM 5% FCS containing different concentrations of the sample to be tested. A separate set of cultures without drug was seeded as control of growth, to ensure that cells remained in exponential phase of growth. All determinations are carrying out in duplicate. After three days of incubation at 37° C., 5% CO2 in a 98% humid atmosphere cells were stained with 0.1% crystal violet. An approximately IC50 was determined by comparing the growth in wells with drug to the growth in wells control.
For quantifying the activity, after the incubation time, cells are trypsinized and counted in a Coulter Counter ZM. All counts (net cells per well), represent the average of duplicate wells. % G, percent of growth relative to cultures without drug. The results of these assays are used to generate dose-response curves from which more precise IC50 values are determined (sample concentration which produces 50% cell growth inhibition).
Obtained results may predict the usefulness of a certain drug as a potential cancer treatment. For this technique, compounds which show IC50 values smaller than 1 μg/ml are selected to continue with further studies. IC50's data allow to predict that not only could a drug be cystostatic, but also it could have a potential in terms of tumor reduction.

Compound	IC50 (P-388) [µM]	IC50 (A-549) [µM]	IC50 (HT-29) [µM]	IC50 (MEL-28) [µM]	IC50 (DU-145; three days of incubation) [µM]	IC50 (DU-145) [µM]
CCCOc1cc2c(cc1OC)[C@@]1(CS[C@@H]3c4c(OC(C)=O)c(C)c5c(c4[C@H](COC1=O)N1C3[C@H]3c4c(cc(C)c(OC)c4OCCC)C[C@@H]([C@@H]1O)N3C)OCO5)NCC2 (some centres unmarked) [Compound 89]	0.591	0.591	0.591	0.591	0.591	–
C=CCOc1cc2c(cc1OC)[C@@]1(CS[C@@H]3c4c(OC(C)=O)c(C)c5c(c4[C@H](COC1=O)N1C3[C@H]3c4c(cc(C)c(OC)c4OCC=C)C[C@@H]([C@@H]1O)N3C)OCO5)NCC2 (some centres unmarked) [Compound 90]	0.0119	0.0119	0.0119	0.0119	0.0119	–
COc1cc2c(cc1OCc1ccccc1)CCN[C@]21CS[C@@H]2c3c(OC(C)=O)c(C)c4c(c3[C@H](COC1=O)N1C2[C@H]2c3c(cc(C)c(OC)c3OCc3ccccc3)C[C@@H]([C@@H]1O)N2C)OCO4 (some centres unmarked) [Compound 91]	0.106	0.106	0.106	0.106	0.106	–
COc1cc2c(cc1OC(=O)OC(C)(C)C)CCN[C@]21CS[C@@H]2c3c(O)c(C)c4c(c3[C@H](COC1=O)N1C2[C@H]2c3c(cc(C)c(OC)c3O)C[C@@H]([C@@H]1C#N)N2C)OCO4 (some centres unmarked) [Compound 106]	0.00121	0.00121	0.00121	0.00121	0.00121	–
COc1cc2c(cc1OC(=O)OC(C)(C)C)CCN[C@]21CS[C@@H]2c3c(OC(=O)C(F)(F)F)c(C)c4c(c3[C@H](COC1=O)N1C2[C@H]2c3c(cc(C)c(OC)c3O)C[C@@H]([C@@H]1C#N)N2C)OCO4 (some centres unmarked) [Compound 107]	0.00108	0.00108	0.00108	0.00108	0.00108	–
CCCC(=O)Oc1c(C)c2c(c3c1[C@H]1SC[C@]4(NCCc5cc(OC(=O)OC(C)(C)C)c(OC)cc54)C(=O)OC[C@@H]3N3C1[C@H]1c4c(cc(C)c(OC)c4O)C[C@@H]([C@@H]3C#N)N1C)OCO2 (some centres unmarked) [Compound 111]	0.00111	0.00111	0.00111	0.00111	–	0.00111
COc1cc2c(cc1OC(=O)OC(C)(C)C)CCN[C@]21CS[C@@H]2c3c(OC(=O)/C=C/c4ccccc4)c(C)c4c(c3[C@H](COC1=O)N1C2[C@H]2c3c(cc(C)c(OC)c3O)C[C@@H]([C@@H]1C#N)N2C)OCO4 (some centres unmarked) [Compound 113]	0.0104	0.0104	0.0104	0.0104	0.0104	–
CCCCCCCC(=O)Oc1c(C)c2c(c3c1[C@H]1SC[C@]4(NCCc5cc(OC(=O)OC(C)(C)C)c(OC)cc54)C(=O)OC[C@@H]3N3C1[C@H]1c4c(cc(C)c(OC)c4O)C[C@@H]([C@@H]3C#N)N1C)OCO2 (some centres unmarked) [Compound 119]	0.0105	0.0105	0.0105	0.0105	0.0105	–
CCCCCCCC(=O)Oc1c(C)c2c(c3c1[C@H]1SC[C@]4(NCCc5cc(OC(=O)OC(C)(C)C)c(OC)cc54)C(=O)OC[C@@H]3N3C1[C@H]1c4c(cc(C)c(OC)c4OC(=O)CCCCCCC)C[C@@H]([C@@H]3C#N)N1C)OCO2 (some centres unmarked) [Compound 120]	0.463	0.463	0.463	0.463	0.463	–
CCCCCCCCCCCCCCCC(=O)Oc1c(C)c2c(c3c1[C@H]1SC[C@]4(NCCc5cc(OC(=O)OC(C)(C)C)c(OC)cc54)C(=O)OC[C@@H]3N3C1[C@H]1c4c(cc(C)c(OC)c4O)C[C@@H]([C@@H]3C#N)N1C)OCO2 (some centres unmarked) [Compound 121]	0.469	0.469	0.469	0.469	0.469	–
